Data on 82 compounds can be found in PubChem BioAssay AID588764 (Broad Institute, 2011).

Records with an inconclusive call do not appear. The source made the active and inactive calls. The rule behind the calls is not given here.

Usually AC50 stands for the midpoint of the concentration-response curve, whichever way the signal moves.

For the assay, the target named is Histone acetyltransferase RTT109 (Candida albicans (strain SC5314 / ATCC MYA-2876)) (UniProt Q5AAJ8). As to the kind of experiment: Rtt109/Vps75 acetyltransferase inhibitor potency, dose response, biochemical, cherry-picked hits, plate reader (AID 588764). Conditions: Rtt109/Vps75 HAT activity; for activity change, negative = inhibition: at 19.5 µM (top of the series).
Chain of Histone acetyltransferase RTT109 (Candida albicans (strain SC5314 / ATCC MYA-2876)) (Q5AAJ8 whole entry, looked up): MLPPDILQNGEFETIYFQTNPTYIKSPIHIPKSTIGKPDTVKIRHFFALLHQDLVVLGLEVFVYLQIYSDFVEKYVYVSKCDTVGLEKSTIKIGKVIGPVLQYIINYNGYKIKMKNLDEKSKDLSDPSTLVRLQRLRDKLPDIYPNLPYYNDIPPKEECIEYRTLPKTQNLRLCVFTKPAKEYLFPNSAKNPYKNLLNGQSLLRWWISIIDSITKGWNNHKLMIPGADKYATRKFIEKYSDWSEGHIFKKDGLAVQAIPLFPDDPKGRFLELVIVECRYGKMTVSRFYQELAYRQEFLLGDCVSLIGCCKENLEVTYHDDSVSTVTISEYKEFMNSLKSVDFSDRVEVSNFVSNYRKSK

Turning to `CS(=O)(=O)C1=NN2C(=N)/C(=C\c3ccc(OC(=O)c4ccco4)cc3)C(=O)N=C2S1`, the “activity change, negative = inhibition” value was “inactive”. Same read-out and setting: the value for `CC[n+]1c(C)sc2c(C)cc(C)cc21` was “inactive”. On to `O=C(O)c1cccc(-n2sc3ccccc3c2=O)c1`, for which the AC50 is 10.5 µM. In the case of `O=C(CCn1c(=O)c2ccccc2n(Cc2cccc([N+](=O)[O-])c2)c1=O)N1CCc2ccccc2C1`, the “activity change, negative = inhibition” value is “inactive”. On the same count and under the same terms, the result for `Cc1cccc(NC(=O)CCN2C(=O)c3ccccc3C2=O)c1` reads “inactive”; that for `COc1ccc(CCNC(=O)CN2C(=O)NC3(CCCCC3C)C2=O)cc1` (configuration not stated), “inactive”; that for `CC1CCCCC1N(C)C1CCN(C(=O)CNC(=O)/C=C/c2cccc(Cl)c2)CC1` (configuration not stated), “inactive”. Same read-out and setting: the result for `CC1CCN(c2ccccc2NC(=O)c2cc([N+](=O)[O-])ccc2N2CCOCC2)CC1` reads “inactive”. Same read-out and setting: the value for `CCOC(=O)C1=C(C)NC(C)=C(C(=O)OCC)C1C(=O)OCC(=O)NCCc1ccc(S(N)(=O)=O)cc1` was “inactive”; that for `CCc1ccccc1NC(=O)C1CCN(C(=O)c2ccc([N+](=O)[O-])cc2)CC1` was “inactive”. For `CCN(CC)c1ccc(C(=S)N2CCN(c3ccccc3)CC2)cc1`, the “activity change, negative = inhibition” value was “inactive”. Same read-out and setting: the value for `Cc1ccc(C#N)c(SCc2nnc(-c3ccc(Cl)cc3)o2)n1` was “inactive”; that for `Cc1ccc(NC(=O)OCc2cc(-c3ccccc3)on2)cc1` was “inactive”; that for `Cc1c(C(=O)Nc2ccc(S(=O)(=O)N(C)C3CCN(C)CC3)cc2)oc2c(Cl)cccc12` was “inactive”. Still for that read-out and setting: the value for `CCOc1cc(/C=N/NC(=O)CSc2nncn2C)ccc1OCc1cccc(C)c1` was “inactive”. On to `COC(=O)c1cccc(-n2sc3ccccc3c2=O)c1`, for which the concentration at half-maximal activity (AC50) was 4.38 µM. For `NC(N)=N/N=C/c1ccc(OCc2ccccc2)c(OCc2ccccc2)c1`, the “activity change, negative = inhibition” value is “inactive”. As to `O=S(=O)(Nc1cc(Sc2ncn[nH]2)c(O)c2ccccc12)c1ccccc1`, the half-maximal activity concentration (AC50) is 4.1 µM. With `CC(C(=O)Nc1ccc(O)c(C(=O)O)c1)N1C(=O)/C(=C/c2cccs2)SC1=S` (configuration not stated), the “activity change, negative = inhibition” value is “inactive”. Still for that read-out and setting: the result for `Cc1ccc(CN(C(=O)c2ccccc2C)C2CCS(=O)(=O)C2)o1` (configuration not stated) reads “inactive”. On the same count and under the same terms, the result for `CC(C)CCNC(=O)C1CCN(S(=O)(=O)c2ccc3c(c2)CC(C)N3C(=O)C2CCC2)CC1` (configuration not stated) reads “inactive”. The same measure, in the same setting: the result for `COc1ccc2[nH]c(=O)c(CN(Cc3nnnn3Cc3ccccc3)CC3CCCO3)cc2c1` (configuration not stated) reads “inactive”.

In the case of `Cc1ccc(S(=O)(=O)CCC(=O)c2cccc([N+](=O)[O-])c2)cc1`, the AC50 is 8.29 µM.

For `O=C(NCCCN1CCCC1=O)c1ccc(OC(F)(F)F)cc1`, the “activity change, negative = inhibition” value was “inactive”. The same measure, in the same setting: the value for `CCOC(=O)c1c(NC(=O)C[n+]2ccc(Cc3ccccc3)cc2)sc(C)c1C` was “inactive”; that for `O=S(=O)(Nc1ccc(O)c(Sc2nc3ccccc3s2)c1)c1cccc2ccccc12` was “inactive”. `O=C(O)C(Cc1ccccc1)N1C(=O)/C(=C/c2ccccc2)SC1=S` (configuration not stated): the “activity change, negative = inhibition” value was “inactive”. With `O=C(NCc1ccccc1)c1nc(S(=O)(=O)Cc2ccccc2)ncc1Cl`, the concentration at half-maximal activity (AC50) was 15 µM. Still for that read-out and setting: the value for `CCCNC(=O)Cn1sc2nc(C)cc(C)c2c1=O` was 2.32 µM. Still for that read-out and setting: the value for `N#Cc1c(Nc2ccccc2Cl)s[nH]c1=O` was 4.21 µM. For the compound `Cc1ccc(-n2c(O)c(C=NCc3ccccn3)c3ccccc3c2=O)cc1C`, the “activity change, negative = inhibition” value was “inactive”. `Cc1ccc(S(=O)(=O)Nc2ccc(O)c3cccnc23)cc1`: the “activity change, negative = inhibition” value is “inactive”. In the case of `C#CCOCCOCCOCCNc1nc(N2CCN(C(=O)[C@H](CCCN=C(N)N)n3cc(C(N)[C@@H](C)CC)nn3)CC2)nc(N2CCN(C(=O)[C@H](CCCCN)n3cc([C@@H](N)CC(N)=O)nn3)CC2)n1` (some centres not stated), the “activity change, negative = inhibition” value is “inactive”. On the same count and under the same terms, the value for `CC(=O)Nc1nnc(CCS(=O)(=O)c2ccc(C)c(C)c2)s1` was “inactive”. Consider `CSS(=O)(=O)c1cccc2cccnc12`, for which the half-maximal activity concentration (AC50) was 7.95 µM. On to `COc1ccc(-c2nc(-c3cccs3)no2)cc1`, for which the “activity change, negative = inhibition” value was “inactive”. Take `CCOC(=O)C1CCCN(c2cc(=O)n(C3CCCCC3)c(=O)[nH]2)C1` (configuration not stated): the “activity change, negative = inhibition” value was “inactive”. Regarding `CCc1sc(C(=O)Nc2cccc(C(C)=O)c2)cc1C`, the “activity change, negative = inhibition” value was “inactive”. Same read-out and setting: the value for `COc1cccc(C(=O)NNC(=O)CCC(=O)O)c1` was “inactive”. As for `C1CCC(C(CC2CCCCN2)C2CCCCC2)CC1` (configuration not stated), the “activity change, negative = inhibition” value is “inactive”. For `O=S(=O)(NN1CCOCC1)c1ccc(Br)cc1`, the AC50 was 11.6 µM. With `COc1cccc(/C=C2/Sc3ccc(C(=O)NCCCN4CCCC4)cc3NC2=O)c1`, the “activity change, negative = inhibition” value is “inactive”.

As to `COc1cc2nc(NCCCN3CCN(C)CC3)n3nc(-c4ccccc4)nc3c2cc1OC`, the “activity change, negative = inhibition” value is “inactive”. On the same count and under the same terms, the value for `C#CCOCCOCCOCCNc1nc(N2CCN(C(=O)C([C@@H](C)O)n3cc([C@@H](N)CCCCN)nn3)CC2)nc(N2CCN(C(=O)C([C@@H](C)O)n3cc([C@@H](N)CCCCN)nn3)CC2)n1` (some centres not stated) was “inactive”. Still for that read-out and setting: the result for `Cc1cccc2sc(N(CCCN(C)C)C(=O)CCc3ccccc3)nc12` reads “inactive”. Take `CC[C@@H](C)[C@H](NC(=O)OC(C)(C)C)c1nnc(S(=O)(=O)Cc2cc(C)ccc2C)o1`: the concentration at half-maximal activity (AC50) is 12.6 µM.

For `COc1ccc(Br)cc1CN(C)C(C)C(=O)Nc1cccc(C(C)=O)c1` (configuration not stated), the “activity change, negative = inhibition” value is “inactive”. The same measure, in the same setting: the value for `Cc1nonc1OCCn1c([N+](=O)[O-])cnc1C` was “inactive”.

For the compound `CCOC(=O)C(=Cc1cc(=O)c(OC)co1)C(=O)OCC`, the AC50 was 10.7 µM.

Regarding `Cc1ccc2nc(N(CCCN(C)C)C(=O)c3ccc4c(c3)CCCC4)sc2c1`, the “activity change, negative = inhibition” value was “inactive”. Still for that read-out and setting: the value for `CC(=O)/C(=N/Nc1ccccc1)Sc1nnc(C(O)c2ccccc2)n1-c1ccccc1` (configuration not stated) was “inactive”.

On to `CN(C)C(=S)SSC(=S)N(C)C`, for which the half-maximal activity concentration (AC50) is 3.4 µM. Turning to `O=C1COc2ccc(C(=O)c3ccccc3C(=O)NCc3ccco3)cc2N1`, the “activity change, negative = inhibition” value is “inactive”. Same read-out and setting: the result for `O=C(CSc1nnc2ccccn12)NNC(=O)c1cccc(Cl)c1` reads “inactive”.

With `O=[N+]([O-])c1ccc(Sc2cccc[n+]2[O-])c2nonc12`, the concentration at half-maximal activity (AC50) is 11.6 µM. Turning to `CC#CCN(CC#CC)S(=O)(=O)c1ccc(-n2cnnn2)c(OC)c1`, the “activity change, negative = inhibition” value was “inactive”.

Regarding `Cc1ccc(C2=NC(C)(C)N=C2SCC(=O)Nc2ccc(Cl)cc2)cc1`, the “activity change, negative = inhibition” value was “inactive”. The same measure, in the same setting: the result for `COc1ccc(NC(=O)CSc2nnc(-c3ccccc3)n2N)cc1` reads “inactive”; that for `CCCCCCCCCCCCn1ccc(=N)cc1`, “inactive”; that for `CCc1cccc(NC(=O)C2CCCN(c3ncnc4c3nc3n4CCCCC3)C2)c1` (configuration not stated), “inactive”. Same read-out and setting: the result for `O=C(Nc1ccc2oc(-c3ccncc3)nc2c1)c1ccc2c(c1)OCCO2` reads “inactive”; that for `COc1cccc(-c2nn(C)c3sc(C(=O)N4CCN(c5ccccn5)CC4)cc23)c1`, “inactive”. Take `CCCCCCCCCCCCCCCC[N+](C)(C)CCN(Cc1ccc(OC)cc1)c1ncccn1`: the half-maximal activity concentration (AC50) was 16.1 µM. With `Cc1nnc(SC2CC(=O)N(c3ccccc3)C2=O)s1` (configuration not stated), the AC50 was 17.5 µM. With `CCOC(=O)c1ccc(N=C2C(=S)N(c3ccc(C(=O)OCC)cc3)C(=N)N2/N=C/c2ccccc2)cc1`, the “activity change, negative = inhibition” value is “inactive”. Take `O=C1CN(C(=O)/C=C/c2ccc(Cl)cc2)c2ccccc2N1`: the “activity change, negative = inhibition” value is “inactive”. Still for that read-out and setting: the result for `CN(C(=O)CCc1nc(-c2ccccc2F)no1)c1ccccc1` reads “inactive”; that for `O=C(C/C=N/OCc1ccc(Cl)cc1Cl)c1ccccc1`, “inactive”. Same read-out and setting: the result for `CCOC(=O)C1CCN(c2ccc([N+](=O)[O-])c(C(C)=O)c2)CC1` reads “inactive”; that for `COc1ccc(/C=N/NC(=O)COc2ccc(Cl)cc2Cl)cc1Cn1nc(C)cc1C`, “inactive”. `N#CC1=C(S)N(c2ccccc2)C(c2cccs2)NC1=O` (configuration not stated): the AC50 is 11.3 µM. As to `CCOC(=O)c1c(C)n(-c2ccc(C)cc2)c2ccc(OCC(O)CNCCCO)cc12` (configuration not stated), the “activity change, negative = inhibition” value is “inactive”. Turning to `O=C1C(Cl)=C(N2CCOCC2)C(=O)N1c1ccccc1Cl`, the AC50 was 14.8 µM.

Consider `CCOC(=O)C1=C(C)N=c2s/c(=C\c3ccc(OCC(=O)O)cc3)c(=O)n2C1c1ccc(OC(C)C)cc1` (configuration not stated), for which the “activity change, negative = inhibition” value was “inactive”. As to `O=C(Nc1ccccc1Cl)/C(Cl)=C(\Cl)S(=O)c1ccccc1` (configuration not stated), the half-maximal activity concentration (AC50) is 8.62 µM. Turning to `O=C(CNC(=O)c1ccncc1)N/N=C/c1cccc([N+](=O)[O-])c1`, the “activity change, negative = inhibition” value was “inactive”. The same measure, in the same setting: the result for `COc1ccc(/C=C/C(=O)O)cc1S(=O)(=O)NCc1ccco1` reads “inactive”. The same measure, in the same setting: the value for `COc1cc(/C=N/N=C(N)N)ccc1OCc1ccccc1Cl` was “inactive”. As for `O=C(Nc1ccc(Cl)c(S(=O)(=O)N2CCCCC2)c1)C1=COCCO1`, the “activity change, negative = inhibition” value was “inactive”. Still for that read-out and setting: the result for `Cc1cc(Cl)c(S(=O)(=O)N2CCCC2)cc1OCC(N)=O` reads “inactive”; that for `Cc1ccccc1/C=C/C(=O)NCC(=O)N1CCC(N(C)C2CCCCC2C)CC1` (configuration not stated), “inactive”; that for `O=C(Cc1ccc(F)cc1)Nc1cccc2cccnc12`, “inactive”.
